The record followed here is paper PMC5078989, “Targeted inhibition of the COP9 signalosome for treatment of cancer” (Nature Communications, 2016).

Molecules are shown by their SMILES.

One series deals with T1, CSN5 (Homo sapiens, UniProt Q92905).
T1 construct: made in house; host or cells: Sf21 insect cells, co-infection of separate baculoviruses
Put plainly: CSN5 activity assay (CSN deneddylation, fluorescence polarization). The conditions noted are these: JAMM domain protease; means±s.d. Type of series: biochemical. As for the experimental part:
Unlike the majority of proteases, it is not active as an individual subunit or as an isolated catalytic domain. […] For the identification of CSN inhibitors, we therefore conducted a high-throughput screening campaign using a biochemical assay with recombinant CSN and a fluorescence-labelled and NEDD8-modified CRL substrate[30][40] (PT22-NEDD8-SCF^Skp2; Supplementary Table 1).
The potency of CSN5 inhibitors was determined in a CSN activity assay using changes in fluorescence polarization as the readout. Reactions were carried out at room temperature in 384-well plates. […] The effect of compound on enzymatic activity was determined from the linear part of the progression curves by an end-point measurement of the fluorescence polarization at 590 nm after excitation at 540 nm using a PHERAstar plate reader (BMG LABTECH GmbH). IC50 values were calculated from the plot of percentage of inhibition versus inhibitor concentration using the non-linear regression analysis software Origin 7.5SR6 (OriginLab Corp.).
In general terms: Polarisation of emitted light reports the rotation of a fluorescent probe.

The target in a further series is T2, Human AMSHLP (Homo sapiens, UniProt Q96FJ0).
T2 construct: made in house; host or cells: E. coli
T2 sequence (Q96FJ0 1-436): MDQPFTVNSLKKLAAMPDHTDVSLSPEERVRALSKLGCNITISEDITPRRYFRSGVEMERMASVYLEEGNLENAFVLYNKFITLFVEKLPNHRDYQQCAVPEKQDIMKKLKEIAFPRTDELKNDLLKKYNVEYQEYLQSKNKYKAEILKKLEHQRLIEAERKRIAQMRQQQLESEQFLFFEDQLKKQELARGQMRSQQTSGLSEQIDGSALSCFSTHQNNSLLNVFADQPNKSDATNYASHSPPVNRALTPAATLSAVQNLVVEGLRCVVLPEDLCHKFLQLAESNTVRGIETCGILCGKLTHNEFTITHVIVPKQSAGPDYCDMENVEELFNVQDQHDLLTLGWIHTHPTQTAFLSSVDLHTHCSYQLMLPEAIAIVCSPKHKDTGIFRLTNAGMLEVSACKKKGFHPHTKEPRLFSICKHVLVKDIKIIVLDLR
Put plainly: Selectivity assay AMSHLP (ubiquitin-rhodamine110-glycine substrate). Type of series: biochemical. The conditions noted are these: JAMM domain protease. Here is the method:
(§1) All biochemical assays were performed at room temperature in 384-well plates in a total volume of 25.25 μl per well. Test compounds were dissolved in 90% (v/v) DMSO/water. For the assays, 250 nl of compound solution was added per well, followed by addition of 12.5 μl protease solution. After 70 min of pre-incubation at room temperature, the reactions were started by addition of 12.5 μl substrate solution and followed either by measuring fluorescence intensity (rhodamine 110-based substrates) or by fluorescence lifetime (PT14-based substrates). The effect of compound on enzymatic activity was obtained from the linear part of the progress curves and determined after 1 h (t=60 min). The final compound concentrations ranged from 100 μM to 1 nM.
Human AMSHLP. Enzyme was expressed in and purified from E. coli; substrate: ubiquitin-rhodamine110-glycine was purchased from emp Biotech GmbH (Berlin, Germany; product number AS 09/12-A4); enzyme concentration: 4 nM; substrate concentration: 200 nM; assay buffer: 100 mM Tris/HCl at pH 7.5, 10 mM CaCl2, 100 mM NaCl, 10 μM ZnCl2, 0.005% (v/v) BRIJ 35 and 5 mM dithioerythritol (DTE).

For another series, the target named is T3, human MMP9 (Homo sapiens, UniProt P14780).
T3 construct: human MMP9 (Uniprot P14780), amino acids 1–707; made in house; host or cells: stably transfected 293 cells
Put plainly: Selectivity assay MMP9. Format: biochemical. As for the experimental part:
as §1
(§2) Matrix metalloproteinases. Human MMP1 (Uniprot P03956), amino acids 1–469, expressed in and purified from stable transfected C127 cells; human MMP2 (Uniprot P08253), amino acids 1–660, expressed in and purified from insect cells (baculovirus expression system); human MMP8 (Uniprot P22894), amino acids 100–262, expressed in and purified from E. coli; human MMP9 (Uniprot P14780), amino acids 1–707, expressed in and purified from stable transfected 293 cells; human MMP12 (Uniprot P39900), amino acids 101–268, expressed in and purified from E. coli; human MMP13 (Uniprot P45452), amino acids 103–274, expressed in and purified from E. coli; human MMP14 (Uniprot P50281), amino acids 112–284, expressed in and purified from E. coli; human ADAM17 (Uniprot P78536), amino acids 1–670, expressed in and purified from insect cells (baculovirus expression system); substrate: Ac-C(PT14)-[…]-NH2 purchased from Biosyntan (product number 8069); enzyme concentrations: 3 nM (MMP1), 1 nM (MMP2), 3 nM (MMP8), 0.1 nM (MMP9), 0.5 nM (MMP12), 0.13 nM (MMP13), 0.005 nM (MMP14), 30 nM (ADAM17); substrate concentration: 0.8 μM; assay buffer: 100 mM Tris, pH 7.4, 100 mM NaCl, 10 mM CaCl2, 10 μM ZnCl2, 0.075% (v/v) Brij35.

The target in another series is T4, human MMP12 (Homo sapiens, UniProt P39900).
T4 construct: human MMP12 (Uniprot P39900), amino acids 101–268; made in house; host or cells: E. coli
Put plainly: Selectivity assay MMP12. Format: biochemical. Here is the method:
as §1, §2

A further series concerns the target T5, human MMP13 (Homo sapiens, UniProt P45452).
T5 construct: human MMP13 (Uniprot P45452), amino acids 103–274; made in house; host or cells: E. coli
Put plainly: Selectivity assay MMP13. Type of series: biochemical. As for the experimental part:
as §1, §2

In another series the target is T6, human ADAM17 (Homo sapiens, UniProt P78536).
T6 construct: human ADAM17 (Uniprot P78536), amino acids 1–670; made in house; host or cells: insect cells (baculovirus)
In words: Selectivity assay ADAM17. Type of series: biochemical. Here is the method: as §1, §2

For another series, the target named is CYP3A4 (Homo sapiens, UniProt P08684). Put plainly: CYP3A4 inhibition. Format: in vitro ADME. From the text: Table 2 CYP3A4 inhibition and key pharmacokinetic parameters in mice of CSN5 inhibitors. | column: CSN5i-2; CSN5i-3
Series [1] is described as follows: Pharmacokinetics in mice (single i.v. and oral dose). Particulars: mouse, in vivo, mice (n=3), single i.v. 1 mg per kg and single oral 3 mg per kg dose; for clearance: read-out: Cl (clearance); for bioavailability: read-out: F (absolute bioavailability); for half-life: read-out: t1/2 (half-life).

T3 sequence (P14780 20-707): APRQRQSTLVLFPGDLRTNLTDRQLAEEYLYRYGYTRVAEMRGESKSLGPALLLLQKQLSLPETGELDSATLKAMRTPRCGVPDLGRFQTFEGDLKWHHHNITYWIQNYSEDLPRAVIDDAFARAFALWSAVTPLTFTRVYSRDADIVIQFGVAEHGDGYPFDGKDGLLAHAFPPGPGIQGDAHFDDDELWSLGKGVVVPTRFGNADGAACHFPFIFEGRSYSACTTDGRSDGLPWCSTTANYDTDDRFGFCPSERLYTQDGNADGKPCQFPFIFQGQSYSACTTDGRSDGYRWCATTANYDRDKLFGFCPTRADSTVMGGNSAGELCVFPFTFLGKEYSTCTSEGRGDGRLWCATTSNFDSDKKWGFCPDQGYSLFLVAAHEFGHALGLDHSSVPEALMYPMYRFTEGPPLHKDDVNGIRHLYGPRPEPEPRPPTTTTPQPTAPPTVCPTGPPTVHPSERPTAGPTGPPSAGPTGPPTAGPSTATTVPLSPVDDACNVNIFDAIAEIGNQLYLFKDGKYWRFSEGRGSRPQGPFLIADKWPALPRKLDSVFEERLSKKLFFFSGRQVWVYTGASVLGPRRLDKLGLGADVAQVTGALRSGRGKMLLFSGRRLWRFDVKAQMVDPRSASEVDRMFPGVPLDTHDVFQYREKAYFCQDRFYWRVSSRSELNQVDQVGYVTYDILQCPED
T4 sequence (P39900 101-268): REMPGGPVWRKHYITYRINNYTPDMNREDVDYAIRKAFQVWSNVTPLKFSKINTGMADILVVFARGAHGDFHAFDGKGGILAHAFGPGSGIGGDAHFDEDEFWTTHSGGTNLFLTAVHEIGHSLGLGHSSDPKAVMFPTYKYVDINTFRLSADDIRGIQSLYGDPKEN
T6 sequence (P78536 18-670): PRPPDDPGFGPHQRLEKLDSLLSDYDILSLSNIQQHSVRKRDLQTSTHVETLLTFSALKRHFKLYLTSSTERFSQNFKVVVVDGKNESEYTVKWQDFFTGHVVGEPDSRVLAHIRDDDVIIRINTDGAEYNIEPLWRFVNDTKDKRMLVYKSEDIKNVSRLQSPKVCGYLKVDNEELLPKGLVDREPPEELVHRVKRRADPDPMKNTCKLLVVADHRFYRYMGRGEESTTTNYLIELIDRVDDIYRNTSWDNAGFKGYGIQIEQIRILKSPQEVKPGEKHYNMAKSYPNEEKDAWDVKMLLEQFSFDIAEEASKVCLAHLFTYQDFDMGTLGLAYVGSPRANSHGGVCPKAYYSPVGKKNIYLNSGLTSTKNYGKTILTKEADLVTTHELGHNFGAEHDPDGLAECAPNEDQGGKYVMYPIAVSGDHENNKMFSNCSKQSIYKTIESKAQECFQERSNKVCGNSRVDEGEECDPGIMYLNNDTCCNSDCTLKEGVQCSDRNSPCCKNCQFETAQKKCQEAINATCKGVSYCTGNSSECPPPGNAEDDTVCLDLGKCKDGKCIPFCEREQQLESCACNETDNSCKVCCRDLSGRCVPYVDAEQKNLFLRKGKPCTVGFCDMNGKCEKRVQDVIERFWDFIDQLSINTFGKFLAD
CYP3A4, sequence (P08684 whole entry, species assumed): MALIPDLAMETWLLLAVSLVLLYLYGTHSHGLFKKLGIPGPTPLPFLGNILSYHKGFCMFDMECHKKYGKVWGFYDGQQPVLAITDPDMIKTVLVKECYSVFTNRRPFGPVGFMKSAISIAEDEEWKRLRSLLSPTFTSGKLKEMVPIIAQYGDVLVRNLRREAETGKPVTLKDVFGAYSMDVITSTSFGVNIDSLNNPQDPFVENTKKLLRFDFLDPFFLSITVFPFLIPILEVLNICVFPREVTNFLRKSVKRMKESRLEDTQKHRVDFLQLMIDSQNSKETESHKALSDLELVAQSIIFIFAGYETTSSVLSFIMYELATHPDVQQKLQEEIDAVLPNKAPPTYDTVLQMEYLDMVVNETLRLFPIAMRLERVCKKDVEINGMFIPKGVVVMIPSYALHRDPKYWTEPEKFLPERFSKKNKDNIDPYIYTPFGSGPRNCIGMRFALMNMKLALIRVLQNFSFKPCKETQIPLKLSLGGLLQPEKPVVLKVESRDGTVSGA

One may read the IC50 as the concentration at which inhibition is half-maximal. Higher therefore signals weaker potency. As usually defined, the bioavailability is the share of a dose that reaches the circulation, judged against a reference dose that is usually intravenous. `COCc1ccccc1NCc1ccc([C@H]2[C@@H](O)CCCc3cncn32)c(-c2ccccc2Cl)c1` [CSN5i-2, (5S,6S)-5-(2′-chloro-5-(((2-(methoxymethyl)phenyl)amino)methyl)-[1,1′-biphenyl]-2-yl)-6,7,8,9-tetrahydro-5H-imidazo[1,5-a]azepin-6-ol]: the IC50 was 0.002 ± 0.001 µM against CSN5; above 100 µM against Human AMSHLP; 3.8 ± 0.4 µM on human MMP9; above 100 µM against human MMP12; above 100 µM against human MMP13; above 100 µM at human ADAM17. Besides, the IC50 against CYP3A4 is below 0.5 µM. In series [1], the clearance is 82 ± 25 mL/min/kg. In addition, the bioavailability in series [1] is below 1%. In addition, the half-life in series [1] amounted to 0.6 ± 0.0167 h.

As for `CC(C)n1nc(C(F)F)cc1C(=O)Nc1ccc([C@H]2[C@@H](O)CCCc3cncn32)c(-c2ccccc2)c1` [CSN5i-3, 3-(Difluoromethyl)-N-(6-((5S,6S)-6-hydroxy-6,7,8,9-tetrahydro-5H-imidazo[1,5-a]azepin-5-yl)-[1,1′-biphenyl]-3-yl)-1-isopropyl-1H-pyrazole-5-carboxamide], the IC50 against Human AMSHLP was above 100 µM; against human MMP9 it was 7.4 ± 2 µM; at human MMP12, above 100 µM; on human MMP13, above 100 µM; on human ADAM17, above 100 µM; against CYP3A4, 6.8 ± 1.8 µM. The clearance in series [1] is 36 ± 3 mL/min/kg. Besides, the bioavailability in series [1] was found to be 33 ± 2%. For the same compound, in series [1], the half-life worked out at 2.5 ± 0.3 h.

For `COCc1ccccc1NCc1ccc([C@@H]2[C@H](O)CCCc3cncn32)c(-c2ccccc2Cl)c1` [CSN5i-2e, (5R,6R)-5-(2′-chloro-5-(((2-(methoxymethyl)phenyl)amino)methyl)-[1,1′-biphenyl]-2-yl)-6,7,8,9-tetrahydro-5H-imidazo[1,5-a]azepin-6-ol], the IC50 against CSN5 is 2.1 ± 1.8 µM; at Human AMSHLP, above 100 µM; against human MMP9, 3.2 ± 0.2 µM; at human MMP12, above 100 µM; against human MMP13, above 100 µM; at human ADAM17, above 100 µM.
